Experimental data taken from ChEMBL document CHEMBL1201862, “PubChem BioAssay data set” (2004).
Active and inactive are the calls of the source.

Experiments:
[1] = viability loss in CEM21 cells – cell-based, CellTiter-Glo luminescence, cherry-picked, cytotoxicity control for viral fusion inhibitor project, dose response (AID 652042); type: functional;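 note: potency for signal decrease meaning cytotoxicity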
[2] = off-target signal loss in HeLa-CEM21 co-culture – HeLa F-luc CTL cells, cherry-picked, counter-screen for HIV-1 Env fusion inhibitor project, dose response (AID 652040); type: functional, cell-based;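 note: potency for signal decrease marking cytotoxic or nonspecific inhibition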
[3] = HIV-1 AD8 envelope cell-cell fusion blockers – cherry-pick, dose response (AID 652062); type: functional, cell-based;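 note: luciferase signal from cell-cell fusion driven by HIV-1 clade B AD8 Env; potency is for inhibitors of fusion seen as a drop in luminescence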
SN12K1 = test: cells; type: functional; conditions: Homo sapiens
P388 = test: cells; type: functional; conditions: Mus musculus
P388/ADR = test: cells; type: functional; conditions: Mus musculus
cells [4] = test: cells
[5] = viability of uninfected HEp-2 cells – cell-based, HTS, cytotoxicity control for RSV inhibitor project, dose response (AID 2410); type: functional; conditions: human respiratory syncytial virus
Vero [6] = test: cells; type: functional, cell-based; conditions: Chlorocebus sabaeus
[7] = biological target: T1, High affinity choline transporter 1 (Homo sapiens, UniProt Q9GZV3); test: human choline transporter blockers, potency – cell-based, 5-point CRC, membrane potential dye, dose response (AID 504840); type: functional
T1 sequence (Q9GZV3 whole entry): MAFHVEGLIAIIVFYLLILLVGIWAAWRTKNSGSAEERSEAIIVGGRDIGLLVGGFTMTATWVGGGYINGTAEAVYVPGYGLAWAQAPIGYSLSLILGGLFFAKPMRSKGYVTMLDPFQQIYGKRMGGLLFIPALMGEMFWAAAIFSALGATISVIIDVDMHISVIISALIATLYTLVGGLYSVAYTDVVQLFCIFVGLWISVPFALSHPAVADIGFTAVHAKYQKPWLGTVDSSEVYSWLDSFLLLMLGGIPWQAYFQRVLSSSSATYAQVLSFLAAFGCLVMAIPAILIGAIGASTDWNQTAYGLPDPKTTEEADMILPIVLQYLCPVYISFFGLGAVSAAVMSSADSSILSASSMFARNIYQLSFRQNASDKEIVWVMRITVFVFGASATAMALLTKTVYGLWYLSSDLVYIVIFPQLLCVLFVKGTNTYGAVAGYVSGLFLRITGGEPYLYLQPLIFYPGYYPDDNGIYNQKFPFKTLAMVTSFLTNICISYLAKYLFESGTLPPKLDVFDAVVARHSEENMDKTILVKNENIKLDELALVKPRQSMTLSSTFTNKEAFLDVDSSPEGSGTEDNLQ

[8] = biological target: Glucose-6-phosphate 1-dehydrogenase (Homo sapiens, UniProt P11413); test: inhibition of Homo sapiens G6PD, dose series – biochemical, fluorescence, selectivity assay for P. falciparum G6PD inhibitor project, dose response (AID 504792); type: functional
Chain of Glucose-6-phosphate 1-dehydrogenase (P11413 whole entry): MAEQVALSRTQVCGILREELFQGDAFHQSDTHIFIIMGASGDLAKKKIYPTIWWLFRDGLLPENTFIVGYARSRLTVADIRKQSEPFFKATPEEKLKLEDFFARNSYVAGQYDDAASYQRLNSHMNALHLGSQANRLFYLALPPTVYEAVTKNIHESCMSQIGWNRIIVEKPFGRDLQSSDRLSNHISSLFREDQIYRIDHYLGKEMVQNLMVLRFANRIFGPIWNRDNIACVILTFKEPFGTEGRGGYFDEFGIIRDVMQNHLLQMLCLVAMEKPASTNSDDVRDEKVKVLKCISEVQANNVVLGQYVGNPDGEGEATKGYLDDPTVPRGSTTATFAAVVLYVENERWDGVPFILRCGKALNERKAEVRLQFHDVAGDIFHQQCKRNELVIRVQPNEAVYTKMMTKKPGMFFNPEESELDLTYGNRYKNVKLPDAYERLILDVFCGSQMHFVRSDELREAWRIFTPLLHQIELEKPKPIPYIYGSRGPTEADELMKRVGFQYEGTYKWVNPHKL

[9] = intracellular Trypanosoma cruzi inhibitors in host cells – cell-based, plate reader, cherry-pick samples, set 3, dose response (AID 651818); type: functional;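 note: compounds incubated with infected cells for about four days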
Paired box protein Pax-8 = Paired box protein Pax-8 (Homo sapiens, UniProt Q06710); test: PAX8 transcriptional activity inhibition in RMG-I – RMG-I cells, luciferase, cherry-pick, dose response (AID 687027); type: functional, cell-based;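 note: luciferase reporter driven by Pax8 target thyroperoxidase promoter measured by SteadyGlo luminescence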
Chain of Paired box protein Pax-8 (Q06710 whole entry): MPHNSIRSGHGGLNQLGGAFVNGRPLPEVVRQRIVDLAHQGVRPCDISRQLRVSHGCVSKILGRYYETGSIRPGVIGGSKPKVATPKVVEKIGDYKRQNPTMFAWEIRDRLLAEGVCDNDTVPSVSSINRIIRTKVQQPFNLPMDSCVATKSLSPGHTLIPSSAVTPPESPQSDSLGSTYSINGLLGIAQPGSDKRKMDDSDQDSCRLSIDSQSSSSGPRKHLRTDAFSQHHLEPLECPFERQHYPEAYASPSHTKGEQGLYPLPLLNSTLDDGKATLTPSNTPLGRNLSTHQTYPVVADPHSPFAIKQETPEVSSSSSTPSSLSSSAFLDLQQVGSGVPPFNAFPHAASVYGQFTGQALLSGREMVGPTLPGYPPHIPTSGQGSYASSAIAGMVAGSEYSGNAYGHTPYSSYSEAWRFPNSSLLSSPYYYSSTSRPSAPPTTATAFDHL

[10] = OVCAR8 cell viability loss – plate reader, dry powder samples, PAX8 project, dose response (AID 743197); type: functional, cell-based; conditions: OVCAR-8
Escherichia coli = test: microbe, parasite or virus in culture
[11] = viability loss in HEK293 cells – cell-based, plate reader, cherry-picked samples, cytotoxicity control, dose response (AID 743446); type: functional
[12] = A549 cell cytotoxicity, dose response, cytotoxicity control, plate reader, cherry-pick, antagonist series (AID 743412); type: functional, cell-based
[13] = toxicity toward HepG2 liver cells – cell-based, plate reader, cherry-pick, antagonist series, cytotoxicity control, dose response (AID 743416); type: functional
[14] = blockers of bursicon-stimulated LGR2 cAMP reporter – cell-based, HEK293, CRE-luciferase reporter, cherry pick, set 2, dose response (AID 743343); type: functional;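 note: transfected cells were stimulated with diluted bursicon conditioned medium after compound addition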
[15] = blockade of melanocortin 4 receptor signaling – cell-based, plate reader, cherry pick, counter-screen for LGR2 antagonist project, dose response (AID 743444); type: functional;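 note: transfected HEK 293 cells stimulated with alpha-MSH peptide; potency of inhibitors of the alpha-MSH evoked signal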
Genome polyprotein = Genome polyprotein (dengue virus type 2, UniProt P29990); test: flavivirus cap methylation enzyme inhibition – biochemical, confirmation dose response, primary screen (AID 588689); type: functional
Chain of Genome polyprotein (P29990 2492-3391 limits assumed): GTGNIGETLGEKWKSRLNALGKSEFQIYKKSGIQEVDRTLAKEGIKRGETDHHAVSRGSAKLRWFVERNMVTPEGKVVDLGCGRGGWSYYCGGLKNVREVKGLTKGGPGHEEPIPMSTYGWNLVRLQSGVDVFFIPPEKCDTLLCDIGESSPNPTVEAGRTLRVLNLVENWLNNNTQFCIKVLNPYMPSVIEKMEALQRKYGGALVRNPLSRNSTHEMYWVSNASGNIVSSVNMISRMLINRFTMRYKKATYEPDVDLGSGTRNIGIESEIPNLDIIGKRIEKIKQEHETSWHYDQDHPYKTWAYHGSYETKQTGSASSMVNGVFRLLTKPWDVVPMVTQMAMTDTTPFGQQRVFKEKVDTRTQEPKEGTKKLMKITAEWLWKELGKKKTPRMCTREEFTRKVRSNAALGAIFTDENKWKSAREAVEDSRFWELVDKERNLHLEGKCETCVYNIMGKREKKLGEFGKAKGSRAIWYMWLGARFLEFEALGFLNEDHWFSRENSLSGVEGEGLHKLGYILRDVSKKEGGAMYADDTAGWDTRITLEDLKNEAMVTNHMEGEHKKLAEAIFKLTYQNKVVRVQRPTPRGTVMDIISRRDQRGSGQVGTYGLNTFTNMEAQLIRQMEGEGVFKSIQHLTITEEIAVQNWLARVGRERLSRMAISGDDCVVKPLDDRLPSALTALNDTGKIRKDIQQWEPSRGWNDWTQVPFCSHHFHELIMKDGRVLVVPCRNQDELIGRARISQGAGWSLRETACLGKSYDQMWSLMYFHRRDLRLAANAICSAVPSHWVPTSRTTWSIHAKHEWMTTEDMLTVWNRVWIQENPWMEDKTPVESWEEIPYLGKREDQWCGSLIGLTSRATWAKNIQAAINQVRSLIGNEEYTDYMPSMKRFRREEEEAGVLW

[16] = blockers of HIV-1 ZM109 envelope-driven cell-cell fusion – HeLa effector, CEM target cells, luciferase, cherry-pick, dose response (AID 652058); type: functional, cell-based;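 note: luciferase signal from HIV-1 Env mediated cell-cell fusion of effector and target cells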
[17] = blockers of HIV-1 envelope-mediated cell-cell fusion – cherry-pick, dose response (AID 652057); type: functional, cell-based
[18] = loss of viability in HepG2 cells – cell-based, CellTiter-Glo, cherry-picked, cytotoxicity control for Shn3 inhibitor project, dose response (AID 624134); type: functional
[19] = non-specific 3'UTR reporter inhibition in Clone20-Shn3RL – cell-based, Renilla luciferase, cherry-picked, counter-screen for Shn3 inhibitor project, dose response (AID 624133); type: functional
[20] = reduction of Shn3 3'UTR-driven luciferase in osteoblasts – cell-based, Clone20 osteoblasts, firefly luciferase, cherry-picked, dose response (AID 624132); type: functional;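 note: firefly luciferase luminescence from reporter carrying the Shn3 3'UTR in osteoblasts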
BJ [21] = test: BJ-TERT-LT-ST fibroblast viability loss – cell-based, RAS-independent, luminescence, dose response (AID 1935); type: functional; conditions: Homo sapiens;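 note: BJ fibroblasts immortalized with TERT plus LT and ST oncogenes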
Vero [22] = test: cells; type: functional; conditions: Chlorocebus sabaeus
[23] = DRD fibroblast viability loss – cell-based, non-viral oncogenic, luminescence, dose response (AID 1934); type: functional; conditions: Homo sapiens
BJ [24] = test: BJ-TERT fibroblast viability loss – cell-based, RAS-independent, luminescence, dose response (AID 1933); type: functional; conditions: Homo sapiens
BJ [25] = test: cells; type: functional, cell-based; conditions: Homo sapiens
cells [26] = type: functional

COc1ccccc1S(=O)(=O)Cc1ccc(C(=O)N2CCN(c3cccc(Cl)c3)CC2)o1
AC50 [1]: 17.1 µM (active)
AC50 [2]: > 70 µM (inactive)
AC50 [3]: 43 µM (active)

O=C1NC(=O)C2(CCc3ccc(N(CCCl)CCCl)cc32)N1 (stereo not given)
GI50 (SN12K1): 15 µM (inactive)
GI50 (P388): 1.35 µM (inactive)
GI50 (P388/ADR): 2.1 µM (inactive)

CC(=O)Nc1nnc(SCC(=O)c2ccc3c(c2)Cc2ccccc2-3)s1
IC50 (cells [4]): 36 µM (active)
CC50 [5]: 45.6 µM (active)
IC50 (Vero [6]): 10.9 µM (active)

Cc1ccc(C(=O)N/C(=C/c2ccco2)C(=O)Nc2cccc(C)c2)cc1
IC50 [7]: 13.7 µM (active)

COC(=O)C1=C(C)N(Cc2ccccc2)C(=O)N[C@H]1c1ccc(Br)cc1
IC50 (cells [4]): 4.43 µM (active)

Cc1ccc(NC(=O)c2cc(C)n(-c3ccccc3)c2C)cc1
CC50 [5]: 16.9 µM (active)
IC50 [8]: > 80 µM (inactive)

C[C@@H]1CN([C@@H](C)CO)C(=O)c2cccc(NC(=O)Nc3ccccc3)c2O[C@H]1CN(C)Cc1ccc(Oc2ccccc2)cc1
AC50 [9]: 2.97 µM (active)

CCCNC(=O)Nc1ccc2c(c1)OC[C@H](C)N(Cc1ccc(-c3ccccn3)cc1)C[C@@H](C)[C@@H](OC)CN(C)C2=O
AC50 (Paired box protein Pax-8): 32.9 µM (active)
AC50 [10]: > 70 µM (inactive)

C[C@H](CO)N1C[C@H](C)[C@H](CN(C)Cc2ccc(C(=O)Nc3ccccc3N)cc2)Oc2ccc(NC(=O)Nc3ccc4c(c3)OCO4)cc2C1=O
AC50 [9]: 3.55 µM (active)

CCNC(=O)c1ccc(NS(=O)(=O)c2ccccc2)cc1
AC50 (Escherichia coli): 27.4 µM (active)

Nc1nc(=O)[nH][nH]1
GI50 (SN12K1): > 100 µM (inactive)
GI50 (P388): > 100 µM (inactive)
GI50 (P388/ADR): > 100 µM (inactive)

O=C(NC1CCCCC1)C(c1ccc2ncccc2c1)N(Cc1ccc2c(c1)OCO2)C(=O)c1cccs1 (stereo not given)
IC50 [7]: 16.5 µM (active)

CSCCC(c1nnnn1-c1c(C)cccc1C)N1CCC(n2c(O)nc3ccccc32)CC1 (stereo not given)
AC50 [11]: 22.4 µM (active)
AC50 [12]: 18.3 µM (active)
AC50 [13]: 36.5 µM (active)
AC50 [14]: 16.5 µM (active)
AC50 [15]: 20.5 µM (active)

Cc1cc(O)c(C(C)C)cc1N=Cc1ccccc1[N+](=O)[O-]
IC50 [8]: > 80 µM (inactive)
IC50 (Genome polyprotein): > 100 µM (active)

N[C@H](C(=O)O)[C@H]1ON=C(Cl)[C@@H]1O
GI50 (SN12K1): 1.07 µM (active)
GI50 (P388): 2.17 µM (inactive)
GI50 (P388/ADR): 2.23 µM (inactive)

NC(Cc1ccc(F)cc1)c1csc(Nc2ccc(C(F)(F)F)cn2)n1 (stereo not given)
AC50 [1]: 9.3 µM (active)
AC50 [2]: 9.07 µM (active)
AC50 [16]: 7.7 µM (active)
AC50 [17]: 10 µM (active)

CC(=O)NS(=O)(=O)c1ccc(NC(=O)c2cc(-c3cccs3)nc3ccccc23)cc1
AC50 (Escherichia coli): 36.4 µM (active)

O=C(COC(=O)CCCSc1nc2ccccc2[nH]1)NC(=O)NC1CCCC1
IC50 [7]: 7.24 µM (active)

COc1cccc(CN(C)C(=O)c2cccc(S(=O)(=O)N3CCN(c4ccccc4)CC3)c2)c1
AC50 [18]: > 70 µM (inactive)
AC50 [19]: 12.2 µM (active)
AC50 [20]: 64.1 µM (active)

Cc1ccc(C(=O)NCC(=O)NCC(=O)OCC(=O)c2ccc([N+](=O)[O-])cc2)cc1
IC50 [8]: > 80 µM (inactive)

C[C@@H]1CN([C@H](C)CO)C(=O)c2cccc(NC(=O)c3nc4ccccc4s3)c2O[C@@H]1CN(C)Cc1ccc(C(F)(F)F)cc1
AC50 [9]: 5.42 µM (active)

Cc1ccc(-n2c(SCC(=O)Nc3ncc(Cl)cc3Cl)nc3ccccc32)cc1
EC50 (BJ [21]): > 150 µM (not active)
CC50 (Vero [22]): > 25 µM (active)
IC50 (cells [4]): 1.1 µM (active)
CC50 [5]: 2.33 µM (active)
EC50 [23]: 30.6 µM (inconclusive)
EC50 (BJ [24]): 115 µM (active)
IC50 (Vero [6]): 0.72 µM (active)
EC50 (BJ [25]): 64.6 µM (active)

COC(=O)CCC(=O)OC1(C)C(=O)C2=CN(c3ccc(OC)cc3)C(c3ccc(OC)cc3)=CC2=C(Br)C1=O (stereo not given)
IC50 [8]: 30.1 µM (inactive)

CCC(=O)Nc1cc2nn(-c3ccc(OC)cc3)nc2cc1C
AC50 [13]: > 52 µM (inactive)
AC50 [14]: 3.64 µM (active)
AC50 [15]: 2.52 µM (active)

Nc1ccn(C2OC(CO)C(O)C2F)c(=O)n1 (stereo not given)
AC50 [1]: 33.2 µM (active)
AC50 [2]: > 70 µM (inactive)
AC50 [3]: 2.98 µM (active)
AC50 [16]: 6.52 µM (active)
AC50 [17]: 16.3 µM (active)

CC1C(O)[C@@]2(OC[C@@]34C(=O)CC5(O)[C@H](CCC6Cc7nc8c(nc7C[C@]65C)CC5CC[C@@H]6C7=C[C@H]9O[C@@]%10(O[C@@](C)(CO)C[C@@H]%10O)C(C)[C@@]9(O)[C@]7(C)[C@@H](O)CC6[C@]5(C)C8)C3=CC[C@H]4C2C)OC1(C)C (stereo not given in full)
GI50 (SN12K1): > 3.55 µM (inactive)
GI50 (P388): < 0.000355 µM (active)
GI50 (P388/ADR): 0.00203 µM (active)

COc1cc(SC)ccc1C(=O)OCC(=O)NC(=O)NC(C)C
AC50 (Escherichia coli): 28.2 µM (active)

CC(C)(C)C(=O)Nc1sc(-c2ccccc2)cc1C(=O)O
IC50 (cells [4]): 14.3 µM (active)
CC50 [5]: 17.9 µM (active)
IC50 (Vero [6]): 24.1 µM (active)

Cc1ccc(-c2nn(-c3ccccc3)cc2C2CC(c3cccs3)=NN2C(=O)CCCC(=O)O)cc1 (stereo not given)
IC50 (cells [4]): 36.9 µM (active)
CC50 [5]: > 50 µM (active)

CCOC1=C2[C@H](c3ccccc3)N(S(=O)(=O)c3ccc(C)cc3)[C@H](C(C)C)[C@H]2C(C#N)(C#N)C(C#N)(C#N)C1
AC50 [1]: 6.07 µM (active)
AC50 [2]: 1.7 µM (active)
AC50 [3]: 3.08 µM (active)
AC50 [16]: 2.05 µM (active)
AC50 [17]: 0.734 µM (active)

C[C@@H]1CCCCO[C@@H](CN(C)Cc2ccc(C(F)(F)F)cc2)[C@@H](C)CN([C@H](C)CO)C(=O)c2cc(NS(=O)(=O)c3ccc(F)cc3)ccc2O1
AC50 [9]: 5.13 µM (active)

CC(=O)N1CCN(c2cc3c(cc2F)c(=O)c(C(=O)O)cn3C2CC2)CC1
AC50 (Escherichia coli): 1.06 µM (active)
IC50 (cells [26]): 2.11 µM (active)

COc1cccc(CNC(=O)c2cc3oc4ccccc4c3n2C)c1OC
IC50 (cells [4]): 4.72 µM (active)
CC50 [5]: 11.7 µM (active)

Cc1nn(Cc2ccccc2Cl)c(C)c1NC(=O)c1ccn(C)n1
AC50 (Escherichia coli): 19.1 µM (active)
